Experimental findings from patent US7790771B1, “Use of tosylchloramide(s) for treating disease of the skin, mucous membrane, organs and tissues” (Engelhard Arzneimittel GmbH & Co., priority 1999, dated 2010) are described below.

This test can be described thus: Treatments of Example 5 repeated with corticoid-free bases containing only chloramine T. It is filed as in vivo. The conditions noted are these: powder added to the bath water. The procedure: Instead of adhesive salve Volon A with added chloramine T, a normal cooling salve was prepared—“unguentum leniens” which merely contained chloramine T-powder (2% by weight) as active ingredient, but no corticoid. The success described under Example 5 was the same.

For `Cc1ccc(S(=O)(=O)NCl)cc1.[Na]` [chloramine T, tosylchloramide-sodium], the “treatment results compared with Example 5” value is listed as “comparable results”.
